The source of these data is patent US20040173696A1, “Milling microgram quantities of nanoparticulate candidate compounds” (Elan Pharma International Ltd., priority 2002, published 2004).

The conditions of data set [1]: 24-well, 48 hours. As to the method:
In this example 0.8 mm media was used.
Naproxen and hydroxypropyllcellulose (HPC-SL) as a surface stabilizer were combined at a drug:stabilizer ratio of 4:1. Samples of the composition and grinding media, as shown in the table below, were added to the wells of a 24-well microplate One well was used for each condition. The microplate was then agitated at the maximum sustainable speed using an orbital shaking platform driven by a standard laboratory magnetic stirring device. After 48 hours the average particle size of naproxen was estimated by light microscopy.

The conditions of data set [2]: 48-well, 0.5 g 0.8 mm media, 0.125 ml slurry, HPC-SL 4:1, 48 hours. The procedure: Naproxen and hydroxypropyllcellulose (HPC-SL) as a surface stabilizer were combined at a drug:stabilizer ratio of 4:1. Samples of the composition and grinding media, as shown in the table below, were added to the wells of a 48-well microplate. One well was used for each condition. The microplate was then agitated at the maximum sustainable speed using an orbital shaking platform driven by a standard laboratory magnetic stirring device. After 48 hours, the average particle size of naproxen was estimated by light microscopy.

Read-outs that look alike come from different tables or passages of the source.

For `COc1ccc2cc([C@H](C)C(=O)O)ccc2c1` [Naproxen], the “Average Particle Size of Naproxen” value in data set [1] (0.25 mg drug, 1 g 0.8 mm media, 0.25 ml slurry, HPC-SL 4:1) is <1 μm,; in data set [1] (0.5 mg drug, 2 g 0.8 mm media, 0.5 ml slurry, HPC-SL 4:1) it was <1 μm,; in data set [1] (1.25 mg drug, 1 g 0.8 mm media, 0.25 ml slurry, HPC-SL 4:1), <1 μm,; in data set [1] (2.5 mg drug, 1 g 0.8 mm media, 0.25 ml slurry, HPC-SL 4:1), less than 0.5 μm; in data set [1] (5 mg drug, 1 g 0.8 mm media, 0.25 ml slurry, HPC-SL 4:1), less than 0.5 μm; in data set [1] (10 mg drug, 2 g 0.8 mm media, 0.5 ml slurry, HPC-SL drug:stabilizer 4:1) it was less than 0.5 μm. The “Average Particle Size” value is reported as less than 1 μm in data set [2] (0.125 mg drug), less than 1 μm in data set [2] (0.625 mg drug), less than 0.5 μm in data set [2] (1.25 mg drug) and less than 0.5 μm in data set [2] (2.5 mg drug).
